According to US20250177481A1, “SCO-spondin-derived polypeptides for enhancing synaptic transmission” (AXOLTIS PHARMA, priority 2021, published 2025):
Positions of bridges follow the written chain, without caps; N, C: chain ends. No end group written: not given here.

Tested on: thalamocortical synaptic response (ventrobasal thalamic nucleus to somatosensory cortex)
Assay: fEPSP input-output (I/O) recordings in thalamocortical mouse brain slices
Format: cell-based, C57Bl6/J mice
Settings: for Normalized fEPSP slope: % of max of vehicle I/O curve, mean of 10 slices
Experimental: Comparison of postsynaptic responses in control versus NX218 peptide conditions were assessed.
Five (C57Bl6/J) male mice 4-5 weeks-old were obtained from Charles River, France and housed in an animal facility. Animal care was compliant with national and local Ethics committee recommendations. Mice were deeply anesthetized by inhalation of isoflurane then decapitated. The dissected brain was quickly placed in ice-cold oxygenated (95% O2/5% CO2) solution containing 214 mM sucrose, 2.5 mM KCl, 1.25 mM NaH2PO4, 26 mM NaHCO3, 2 mM MgSO4, 2 mM CaCl2 and 10 mM D-glucose.
10 Thalamocortical slices (2 slices per mouse) were prepared as described in Agmon and Connors (1991) and Varela et al. (2013). After its recovery, the brain was placed on a support allowing to elevate the caudal part of the brain until dorsal surface forms a 10-degree angle with the horizontal plane. Then, a section at 55 degrees with respect to the midline was performed and the rostral part was removed. In the slicing chamber, the brain was glued on the sectioned face. Then, the brain was sliced with a thickness of 400 μm. Slices were immediately transferred to a holding chamber filled with an artificial cerebrospinal fluid (aCSF) composed by 124 mM NaCl, 2.5 mM KCl, 1.25 mM NaH2PO4, 26 mM NaHCO3, 2 mM MgSO4, 2 mM CaCl2 and 10 mM D-glucose. The holding chamber was continuously oxygenated and maintained at 35° C. After a recovery period of 30 min, slices were incubated at room temperature for a minimum of 30 min.
For electrophysiological recordings, a single slice was placed in the recording chamber (room temperature) submerged and continuously superfused at a constant rate (2 mL/min) with gassed (95% O2, 5% CO2) aCSF for the reminder of the experiment.
A bipolar tungsten stimulating electrode was placed in the ventrobasal nucleus of the thalamus (the ventrobasal nucleus of the thalamus contains mostly glutamatergic neurons and few GABAergic interneurons) and extracellular field potential was recorded in the somatosensory cortex using a glass microelectrode.
Synaptic transmission Input/Output (I/O) curves were constructed to assess changes in the synaptic transmission, using a range of stimulus intensities from 0 μA to 850 μA with 50 μA intervals. Increasing stimulation intensities results in a linear increase until a maximal plateau in vehicle conditions.
Signals were amplified with an Axopatch 200B amplifier (Molecular Devices, Union City, CA) digitized by a Digidata 1322A interface (Axon Instruments, Molecular Devices, US) and sampled at 10 kHz. Recordings were acquired using Clampex (Molecular Devices) and analyzed with Clampfit (Molecular Devices). Experimenters were blinded to treatment groups for all experiments.
NX218 or vehicle was delivered in the thalamic radiations region by fast focal perfusion. The system consists of syringes containing the respective solutions with tubing lines fusing to a low dead-volume manifold mounted to a micromanipulator. The tip (300-μm diameter) mounted to the manifold was located within a desired distance of less than 1 mm of the target region, with a flow rates of approximately 0.2 mL/min. Tubing lines were controlled by electrical pinch valves which were opened and closed by transistor-transistor logic signals sent out from the DigiData system and parameters set in the perfusion and recording protocol in Clampex 10.3.
Data were analyzed by measuring the slope of individual fEPSPs by linear fitting using Clampfit. The slope of fEPSPs was plotted against different intensities of stimulation (from 0 to 850 μA).

W-S-G-W-S-S-C-S-R-S-C-G [NX218] (WSGWSSCSRSCG; disulfide 7-11 (inferred))
change of fEPSP slope vs vehicle alone (whole I/O curve) (particularly for stimulation intensities from 150 to 450 μA): significant increase | Normalized fEPSP slope (stimulation intensity 0 µA): 0.37% | Normalized fEPSP slope (stimulation intensity 50 µA): 26.12% | Normalized fEPSP slope (stimulation intensity 100 µA): 54.34% | Normalized fEPSP slope (stimulation intensity 150 µA): 87.31% | Normalized fEPSP slope (stimulation intensity 200 µA): 99.95% | Normalized fEPSP slope (stimulation intensity 250 µA): 107.48% | Normalized fEPSP slope (stimulation intensity 300 µA): 111.20% | Normalized fEPSP slope (stimulation intensity 350 µA): 118.22% | Normalized fEPSP slope (stimulation intensity 400 µA): 118.91% | Normalized fEPSP slope (stimulation intensity 450 µA): 121.63% | Normalized fEPSP slope (stimulation intensity 500 µA): 121.16% | Normalized fEPSP slope (stimulation intensity 550 µA): 122.81% | Normalized fEPSP slope (stimulation intensity 600 µA): 121.42% | Normalized fEPSP slope (stimulation intensity 650 µA): 124.24% | Normalized fEPSP slope (stimulation intensity 700 µA): 124.14% | Normalized fEPSP slope (stimulation intensity 750 µA): 121.65% | Normalized fEPSP slope (stimulation intensity 800 µA): 120.97% | Normalized fEPSP slope (stimulation intensity 850 µA): 121.41%
